In article PMC7531004, “Discovery of gramicidin A analogues with altered activities by multidimensional screening of a one-bead-one-compound library” (Nature Communications, 2020):
Where a SMILES comes first, the peptide text is derived from it. [ ]: non-standard residue; d: D form. The star is where a group is joined. NHCH2CH2OH = OCCN*; For = O=C*

How the values were obtained:
[1] = tested on: Streptococcus pyogenes SSI-9; test: Antibacterial activity assay of bead-derived peptides (three concentrations); format: cell-based; design: key: +++: inhibition by the 640-fold diluted peptide solution; ++: inhibition by the 160-fold diluted solution; +: inhibition by the 40-fold diluted solution; -: no inhibition; details: S. pyogenes, bead-derived peptide solution, three concentrations
Summary of the method: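 First, each peptide stock was diluted 4- and 16-fold in DMSO; next, the three solutions were mixed with S. pyogenes SSI-9 suspension (2 × 10^5 CFU) in cation-adjusted Mueller Hinton Broth plus 5% laked horse blood; finally, plates stood 18 h at 37 °C before checking for grown-cell precipitation.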

[2] = H+/Na+ transport assay of bead-derived peptides (one-point); format: biochemical; design: key: relative activity; mean of two control wells = 1.00; details: bead-derived peptide solution, EYPC/EYPG LUVs;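 note: relative to parent gramicidin A activity set to 1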
Summary of the method: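 One-point screen: peptide + pyranine-loaded LUVs, 30 min RT with vortexing, 96-well. Read-out is fluorescence intensity scaled as 100 × (Ix – I0)/(Imax – I0). Imax from Triton X-100, I0 from untreated vesicles, and the mean of the two control wells is set to 1.00.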

[3] = tested on: P388 mouse leukemia cells; details: 92 h
Summary of the method: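 Peptide stocks diluted 250× in growth medium; P388 cells 1 × 10^4 cells/mL final; 37 °C, 5% CO2, 92 h. WST-1 + 1-methoxy PMS, 4 h, A415. Output: % viability.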

SMILES	antibacterial activity [1]	H+/Na+ transport activity normalized against the value of 1 (1.00) [2]	cell viability/% [3]
CC(C)C[C@@H](NC(=O)[C@H](C)NC(=O)CNC(=O)[C@@H](NC=O)C(C)C)C(=O)N[C@@H](C)C(=O)N[C@@H](C(=O)N[C@H](C(=O)N[C@H](CC(C)C)C(=O)N[C@@H](Cc1c[nH]c2ccccc12)C(=O)N[C@H](CC(C)C)C(=O)N[C@@H](Cc1c[nH]c2ccccc12)C(=O)N[C@@H](C(=O)N[C@@H](Cc1c[nH]c2ccccc12)C(=O)N[C@H](CC(C)C)C(=O)N[C@@H](Cc1c[nH]c2ccccc12)C(=O)NCCO)C(C)C)C(C)C)C(C)C [compound 3847] (For-VGA[dL]A[dV]V[dL]W[dL]W[dV]W[dL]W-NHCH2CH2OH)	+	1.22	0.0%
CNC(=O)C[C@@H](NC(=O)[C@H](Cc1c[nH]c2ccccc12)NC(=O)[C@H](NC(=O)[C@H](Cc1c[nH]c2ccccc12)NC(=O)[C@H](NC(=O)[C@H](Cc1c[nH]c2ccccc12)NC(=O)[C@@H](CC(C)C)NC(=O)[C@@H](NC(=O)[C@H](NC(=O)[C@H](C)NC(=O)[C@H](NC(=O)[C@H](C)NC(=O)CNC(=O)[C@@H](NC=O)C(C)C)C(C)C)C(C)C)C(C)C)C(C)C)C(C)C)C(=O)N[C@@H](Cc1c[nH]c2ccccc12)C(=O)NCCO [compound 7271] (For-VGA[dV]A[dV]V[dL]W[dV]W[dV]W[dD](NHMe)W-NHCH2CH2OH)	-	1.02	10.6%
CNC(=O)C[C@@H](NC(=O)[C@H](Cc1c[nH]c2ccccc12)NC(=O)[C@H](NC(=O)[C@H](Cc1c[nH]c2ccccc12)NC(=O)[C@@H](CC(C)C)NC(=O)[C@H](Cc1c[nH]c2ccccc12)NC(=O)[C@H](NC(=O)[C@@H](NC(=O)[C@@H](CC(C)C)NC(=O)[C@H](C)NC(=O)[C@H](NC(=O)[C@H](C)NC(=O)CNC(=O)[C@@H](NC=O)C(C)C)C(C)C)C(C)C)C(C)C)C(C)C)C(=O)N[C@@H](Cc1c[nH]c2ccccc12)C(=O)NCCO [compound 7228] (For-VGA[dV]A[dL]V[dV]W[dL]W[dV]W[dD](NHMe)W-NHCH2CH2OH)	-	1.06	100.0%
CNC(=O)C[C@@H](NC(=O)[C@@H](NC(=O)[C@H](NC(=O)[C@H](C)NC(=O)[C@H](NC(=O)[C@H](C)NC(=O)CNC(=O)[C@@H](NC=O)C(C)C)C(C)C)C(C)C)C(C)C)C(=O)N[C@@H](Cc1c[nH]c2ccccc12)C(=O)N[C@H](CC(C)C)C(=O)N[C@@H](Cc1c[nH]c2ccccc12)C(=O)N[C@H](CC(C)C)C(=O)N[C@@H](Cc1c[nH]c2ccccc12)C(=O)N[C@H](CC(C)C)C(=O)N[C@@H](Cc1c[nH]c2ccccc12)C(=O)NCCO [compound 8982] (For-VGA[dV]A[dV]V[dD](NHMe)W[dL]W[dL]W[dL]W-NHCH2CH2OH)	-	1.21	49.1%
CC(C)C[C@@H](NC(=O)[C@H](C)NC(=O)[C@H](NC(=O)[C@H](C)NC(=O)CNC(=O)[C@@H](NC=O)C(C)C)C(C)C)C(=O)N[C@H](C(=O)N[C@@H](C(=O)N[C@@H](Cc1c[nH]c2ccccc12)C(=O)N[C@H](CC(C)C)C(=O)N[C@@H](Cc1c[nH]c2ccccc12)C(=O)N[C@H](CC(C)C)C(=O)N[C@@H](Cc1c[nH]c2ccccc12)C(=O)N[C@@H](C(=O)N[C@@H](Cc1c[nH]c2ccccc12)C(=O)NCCO)C(C)C)C(C)C)C(C)C [compound 12789] (For-VGA[dV]A[dL]V[dV]W[dL]W[dL]W[dV]W-NHCH2CH2OH)	-	1.04	9.6%
CNC(=O)C[C@@H](NC(=O)[C@H](Cc1c[nH]c2ccccc12)NC(=O)[C@H](NC(=O)[C@H](Cc1c[nH]c2ccccc12)NC(=O)[C@H](NC(=O)[C@H](Cc1c[nH]c2ccccc12)NC(=O)[C@@H](CC(C)C)NC(=O)[C@@H](NC(=O)[C@H](NC(=O)[C@H](C)NC(=O)[C@@H](CC(C)C)NC(=O)[C@H](C)NC(=O)CNC(=O)[C@@H](NC=O)C(C)C)C(C)C)C(C)C)C(C)C)C(C)C)C(=O)N[C@@H](Cc1c[nH]c2ccccc12)C(=O)NCCO [compound 8567] (For-VGA[dL]A[dV]V[dL]W[dV]W[dV]W[dD](NHMe)W-NHCH2CH2OH)	-	1.22	60.9%
CC(C)C[C@@H](NC(=O)[C@H](Cc1c[nH]c2ccccc12)NC(=O)[C@H](NC(=O)[C@H](Cc1c[nH]c2ccccc12)NC(=O)[C@@H](CC(C)C)NC(=O)[C@H](Cc1c[nH]c2ccccc12)NC(=O)[C@H](NC(=O)[C@@H](NC(=O)[C@H](NC(=O)[C@H](C)NC(=O)[C@H](NC(=O)[C@H](C)NC(=O)CNC(=O)[C@@H](NC=O)C(C)C)C(C)C)C(C)C)C(C)C)[C@H](C)O)C(C)C)C(=O)N[C@@H](Cc1c[nH]c2ccccc12)C(=O)NCCO [compound 7702] (For-VGA[dV]A[dV]V[dT]W[dL]W[dV]W[dL]W-NHCH2CH2OH)	-	1.01	100.0%
CC(C)C[C@@H](NC(=O)[C@H](C)NC(=O)[C@H](NC(=O)[C@H](C)NC(=O)CNC(=O)[C@@H](NC=O)C(C)C)C(C)C)C(=O)N[C@H](C(=O)N[C@@H](C(=O)N[C@@H](Cc1c[nH]c2ccccc12)C(=O)N[C@H](CC(C)C)C(=O)N[C@@H](Cc1c[nH]c2ccccc12)C(=O)N[C@@H](C(=O)N[C@@H](Cc1c[nH]c2ccccc12)C(=O)N[C@H](CC(C)C)C(=O)N[C@@H](Cc1c[nH]c2ccccc12)C(=O)NCCO)C(C)C)C(C)C)C(C)C [compound 10261] (For-VGA[dV]A[dL]V[dV]W[dL]W[dV]W[dL]W-NHCH2CH2OH)	+	1.05	46.3%
CC(C)C[C@@H](NC(=O)[C@H](C)NC(=O)[C@H](NC(=O)[C@H](C)NC(=O)CNC(=O)[C@@H](NC=O)C(C)C)[C@H](C)O)C(=O)N[C@H](C(=O)N[C@H](CC(C)C)C(=O)N[C@@H](Cc1c[nH]c2ccccc12)C(=O)N[C@H](CC(C)C)C(=O)N[C@@H](Cc1c[nH]c2ccccc12)C(=O)N[C@H](CC(C)C)C(=O)N[C@@H](Cc1c[nH]c2ccccc12)C(=O)N[C@H](CC(C)C)C(=O)N[C@@H](Cc1c[nH]c2ccccc12)C(=O)NCCO)C(C)C [compound 7905] (For-VGA[dT]A[dL]V[dL]W[dL]W[dL]W[dL]W-NHCH2CH2OH)	-	1.10	100.0%
CC(C)C[C@@H](NC(=O)[C@H](C)NC(=O)[C@H](NC(=O)[C@H](C)NC(=O)CNC(=O)[C@@H](NC=O)C(C)C)[C@H](C)O)C(=O)N[C@H](C(=O)N[C@H](CC(C)C)C(=O)N[C@@H](Cc1c[nH]c2ccccc12)C(=O)N[C@H](CC(C)C)C(=O)N[C@@H](Cc1c[nH]c2ccccc12)C(=O)N[C@H](CC(C)C)C(=O)N[C@@H](Cc1c[nH]c2ccccc12)C(=O)N[C@H](CC(C)C)C(=O)N[C@@H](Cc1c[nH]c2ccccc12)C(=O)NCCO)C(C)C [compound 10497] (For-VGA[dT]A[dL]V[dL]W[dL]W[dL]W[dL]W-NHCH2CH2OH)	-	1.24	100.0%
